# Assay results taken from patent US6506781B1, “Oxazole PPAR antagonist” (SmithKline Beecham Corporation, priority 1999, dated 2003).
# Test system: male ZDF/GMI fa/fa rats
# Assay: Experimental animal protocol: blood glucose, triglycerides and NEFAs in ZDF rats
# Format: in vivo
# Details: 150 mg/kg twice a day oral gavage, after 2 weeks, non-fasting, mean ± SEM
# Experimental: Experimental Animal Protocol
# Age and weight matched male ZDF/GMI fa/fa rats (Genetic Models) were housed at 72 degF. and 50% relative humidity with a 12 hr light and dark cycle. Starting at 8 weeks of age the animals were dosed twice a day by oral gavage with 150 mg/kg of example 2. After 2 weeks the animals were anesthetized with isofluorane, blood drawn by cardiac puncture, and non-fasting measurements of glucose, triglycerides, and non-esterified free fatty acids (NEFAS) were obtained. The data were calculated as the mean and standard error (SEM) from experiments performed on ten animals per treatment group. Two-tailed tests were performed to calculate P values using Excel on a personal computer. This research complied with the principles of laboratory animal care (NIH publication No. […], revised 1985) and company policy on the care and use of animals and related codes of practice.
structure (smiles),measurement,setting,value
"CCCc1nnc(C[C@H](Nc2ccccc2C(=O)c2ccccc2)c2ccc(OCCc3nc(-c4ccccc4)oc3C)cc2)o1 [Example 1, (S)-{{2-[1-(2-Benzoylphenyl)amino]-2-{4-[2-(5-methyl-2-phenyloxazol-4-yl)ethoxy]phenyl}ethyl}}-5-propyl-1,3,4-oxadiazole]",Free Fatty Acids,control 1.48 ± 0.09,1.14 ± 0.06 mEq/L
same,Glucose,control 313 ± 62,201 ± 13 mg/dL
same,Triglycerides,control 1507 ± 143,734 ± 102 mg/dL
